Test results taken from patent publication US20220017623A1, “TREATMENT OF CANCER USING A CEA CD3 BISPECIFIC ANTIBODY AND A WNT SIGNALING INHIBITOR” (Hoffmann-La Roche Inc., priority 2019, published 2022).

Key:
[1] = test system: patient derived colorectal cancer organoids (PDOs); assay: allogeneic CD8 T cell co-culture assay with patient derived colorectal cancer organoids, GFP confluence growth assessment; format: cell-based, human; conditions: CEAhi PDO CRC-01; E:T 2:1; 20 nM
Procedure: In order to assess the sensitivity of patient-derived colorectal cancer organoids (PDOs) to cibisatamab immunotherapy, eight patient derived colorectal cancer organoid lines with various cell surface CEA expression levels were generated and treated with cibisatamab (20 nM) or an untargeted control antibody (20 nM) during 10 days of co-culture with allogeneic CD8 T cells. CD8 T cells were isolated from allogeneic healthy donor peripheral blood mononuclear cells (PBMCs) by magnetic bead sorting and expanded in vitro with IL2 and CD3/CD28 beads for 7-14 days. GFP-tagged CRC PDO cells were then seeded in 96 well plates, T cells were added the following day and the co-cultures were imaged every 2-3 days on an automated 96 well plate fluorescence microscope. […] Co-culture with CD8 T cells without any antibody was included as a further control to enable the identification of alloreactive donor T cells. […]
PDOs were harvested with TrypLE Express and neutralised with DMEM/F12 Ham medium (Sigma Aldrich) with 10% FBS. Cells were filtered through a 70 μm filter, counted and resuspended in phenol-red free RPMI medium (Thermo Fisher) supplemented with 10% FBS (Biosera), 1× Glutamax and 100 units penicillin-streptomycin. […]
The GFP confluence was quantified every 48h-72h over a 10-day period using the GFP confluence application on the Celigo Imaging Cytometer (Nexcelom Bioscience). […]

[2] = test system: cell surface CEA expression of colorectal cancer organoid lines; assay: Wnt/β-catenin pathway inhibition assay: cell surface CEA expression of PDOs by flow cytometry; format: cell-based, human; conditions: PDOs with mixed CEA expression; 10 μM for 3 days; FACS
Procedure: Two PDO lines with mixed CEA expression were treated with an inhibitor of WNT signalling: the tankyrase inhibitor compound 21 which inhibits the downstream WNT/β-catenin pathway by stabilizing the β-catenin destruction complex (Elliott et al., Med Chem Comm. 2015; 6(9):1687-92; Mariotti et al., Br J Pharmacol. 2017; 174(24):4611-36).
Cell lines were harvested using enzyme-free Cell Dissociation Buffer (Thermo Fisher) and PDOs with TrypLE Express (Gibco). 2×10^5 cells were stained with 20 nM of the human anti-human CEA antibody CH1A1A (Roche) and 25 ug/ml of the R-Phycoerythrin conjugated secondary antibody AffiniPure F(ab′)2 Fragment Goat Anti-Human IgG, Fcγ Fragment Specific (Stratech). DRAQ7 (Biostatus) staining was included for dead cell exclusion. CEA expression was analysed on a Sony SH800 flow cytometer. Gate boundaries were set at the trough between high and low CEA populations in PDOs with mixed CEA expression and identical gates were used across all samples. The percentage of CEAhi and CEAlo populations and mean fluorescence intensities (MFI) were calculated for each PDO.
10^5 PDO cells/well were seeded in 12 well plates and allowed to attach overnight. […] Cells were harvested using TrypLE Express, stained for CEA with the CH1A1A primary antibody and the R-Phycoerythrin conjugated secondary antibody and analyzed by FACS as described above.

Molecule: DP47-TCB: untargeted antibody used as a negative control [reference compound]
- growth suppression activity of T cells in the presence of antibody [1]: no activity

Molecule: Cc1cc(-c2ncc(CC(=O)Nc3ccc(-c4cnccn4)cn3)cc2C)ccn1 [LGK-974]
- effect on CEA expression and CEAhi subpopulation [2]: increase in CEA expression and the CEAhi subpopulation
